The values that follow come from paper doi:10.1101/2024.04.25.591105v1 (biorxiv, 2024).

This experiment concerns the target 14-3-3σΔC / ERα phosphopeptide complex (crystals) (Homo sapiens, UniProt P03372+P31947). Description: X-ray crystallography, soaking. Format: binding. The following applies: ternary complex with Ac-ERα phosphopeptide.

Sequence of 14-3-3σΔC / ERα phosphopeptide complex (crystals) (P31947 1-231, stated change not applied, other chains not shown): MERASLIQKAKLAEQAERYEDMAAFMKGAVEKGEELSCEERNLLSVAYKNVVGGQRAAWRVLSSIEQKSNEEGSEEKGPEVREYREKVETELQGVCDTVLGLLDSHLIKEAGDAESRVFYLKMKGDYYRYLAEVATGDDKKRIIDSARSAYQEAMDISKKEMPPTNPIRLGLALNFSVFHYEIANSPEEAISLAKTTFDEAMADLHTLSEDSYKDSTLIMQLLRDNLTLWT

In the case of `C=CC(C)(C)OC[C@H]1O[C@H](O[C@@H]2C3=C([C@H](C)CNC(C)=O)C[C@H](O)[C@]3(C)/C=C3\[C@@H](COC)CC[C@H]3[C@@H](C)[C@H]2O)[C@H](O)[C@@H](O)[C@@H]1O` [FC-NAc], the “X-ray crystallography, soaking” value is given as 8BZH (FC-NAc). For `COC[C@H]1CC[C@@H]2/C1=C/[C@]1(C)C(=C([C@H](C)CNC(C)=O)C[C@@H]1O)[C@@H](O)[C@H](O)[C@@H]2C` [FC-NAg] the value was 8BZT (FC-NAg).
